Measurements published in PMC9820377, “Molecular Characterization and Expression Patterns of Two Pheromone-Binding Proteins from the Diurnal Moth Phauda flammans (Walker) (Lepidoptera: Zygaenoidea: Phaudidae)” (International Journal of Molecular Sciences, 2022).

Columns and labels:
PflaPBP2 = PflaPBP2 (Phauda flammans, UniProt A0A6M6R985); assay: Fluorescence competitive binding assay with 1-NPN probe, PflaPBP2; conditions: recombinant protein 2 µM, 1-NPN 2 µM, 50 mM Tris-HCl buffer; for Ki: calculated from IC50 and K1-NPN, pH 7.4; for IC50: pH 7.4, room temperature
Sequence of PflaPBP2 (A0A6M6R985 entry or part of it): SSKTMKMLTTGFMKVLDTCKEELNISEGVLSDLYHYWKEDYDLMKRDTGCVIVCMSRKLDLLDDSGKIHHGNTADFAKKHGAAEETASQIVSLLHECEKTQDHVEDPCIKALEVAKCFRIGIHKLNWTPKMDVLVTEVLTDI
Procedure: (§1) An RF-5301PC fluorescence spectrophotometer (Shimadzu, Kyoto, Japan) was used in this experiment for fluorescence competitive binding analysis with a 1-cm quartz colorimetric cup at room temperature. N-Phenyl-1-naphthylamine (1-NPN) was used as the probe and applied for the suitability test. The 1-NPN was excited at 337 nm, in which the emission spectra were recorded between 350 and 660 nm. The purified PflaPBP1 and PflaPBP2 were diluted to a final concentration of 2 µM of the protein solution in Tris-HCl buffer and titrated with aliquots of 1 mM 1-NPN dissolved in methanol, which were 0, 2, 4, 8, 12, 16, 20 µM. The maximum fluorescence value (manipulate peak pick) of each excitation was recorded. The binding data were obtained from three independent measurements. The dissociation constants of PflaPBP1/PflaPBP2 for 1-NPN were calculated from Scatchard plots of the binding data by using Prism 5 software (GraphPad, La Jolla, CA, USA) with nonlinear regression for the one site-specific binding method.
The two sex pheromones Z-9-hexadecenal (Z9H, 96.3% chemical purity) and (Z, Z, Z)-9,12,15-octadecatrienal (Z9O, 93% chemical purity) were obtained from Shanghai T & W Pharmaceutical Co., Ltd. (Shanghai, China) and Pherobank BV (Wijk bij Duurstede, The Netherlands). The competitive binding of these two sex pheromone components was measured using 1-NPN (2 µM) as the fluorescent probe with a stoichiometry of 1:1 (protein: ligand). PflaPBP1 or PflaPBP2 was titrated to a final concentration of 2 μmol/L with 50 mM Tris-HCl buffer. […] All sets of fluorescence spectrophotometers were the same as above. The binding data were obtained from three independent measurements. […] The following formula was adopted to calculate the binding affinities (Ki): Ki=[IC50]/1+[1−NPN/K1−NPN] ) where [1-NPN] is the free concentration of 1-NPN, [IC50] is the ligand concentration replacing 50% of the fluorescence reporter, and K1-NPN is the dissociation constant of the PflaPBP/1-NPN complex. The data were fitted with nonlinear regression model using Prism software (version 5.0).

PflaPBP1 = PflaPBP1 (Phauda flammans, UniProt A0A6M6RBM3); assay: Fluorescence competitive binding assay with 1-NPN probe, PflaPBP1; conditions: recombinant protein 2 µM, 1-NPN 2 µM, 50 mM Tris-HCl buffer; for Ki: calculated from IC50 and K1-NPN, pH 7.4; for IC50: pH 7.4, room temperature
Sequence of PflaPBP1 (A0A6M6RBM3 entry or part of it): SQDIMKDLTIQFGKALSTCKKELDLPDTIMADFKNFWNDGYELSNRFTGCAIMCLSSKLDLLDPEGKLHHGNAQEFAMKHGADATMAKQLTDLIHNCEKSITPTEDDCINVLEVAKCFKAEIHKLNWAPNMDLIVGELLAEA
Procedure: as §1
The two sex pheromones Z-9-hexadecenal (Z9H, 96.3% chemical purity) and (Z, Z, Z)-9,12,15-octadecatrienal (Z9O, 93% chemical purity) were obtained from Shanghai T & W Pharmaceutical Co., Ltd. (Shanghai, China) and Pherobank BV (Wijk bij Duurstede, The Netherlands). The competitive binding of these two sex pheromone components was measured using 1-NPN (2 µM) as the fluorescent probe with a stoichiometry of 1:1 (protein: ligand). PflaPBP1 or PflaPBP2 was titrated to a final concentration of 2 μmol/L with 50 mM Tris-HCl buffer. The sex pheromone dissolved in methanol was gradually added to the mixed solution of protein and 1-NPN with the final concentration of each ligand added to the sample ranging from 0 μM to 20 μM. All sets of fluorescence spectrophotometers were the same as above. The binding data were obtained from three independent measurements. […] The following formula was adopted to calculate the binding affinities (Ki): Ki=[IC50]/1+[1−NPN/K1−NPN] ) where [1-NPN] is the free concentration of 1-NPN, [IC50] is the ligand concentration replacing 50% of the fluorescence reporter, and K1-NPN is the dissociation constant of the PflaPBP/1-NPN complex. The data were fitted with nonlinear regression model using Prism software (version 5.0).

Ki (PflaPBP2) [µM] | IC50 (PflaPBP2) [µM] | Ki (PflaPBP1) [µM] | IC50 (PflaPBP1) [µM] | SMILES
24.8 | 34 | 38.5 | 52.7 | CC/C=C\C/C=C\C/C=C\CCCCCCCC=O [(Z, Z, Z)-9, 12, 15-octadecatrienal]
109 | 149 | 21.3 | 29.1 | CCCCCC/C=C\CCCCCCCC=O [Z-9-hexadecenal]
